Reference: patent publication US8551937B2, “Peptide having an extending action for half-life of object peptide in plasma” (priority 2008, dated 2013)
Like-named read-outs stand apart in the source and are kept apart here.

Tests used:
[1] = CNP immunoreactivity concentration in plasma after administration to rats (competitive RIA), pharmacokinetic parameters (Example 2); type: in vivo, rat; conditions: for half-life: read-out: T½
Protocol: Pharmacokinetic parameters were calculated from the resulting changes in immunoreactivity concentrations in plasma. At that time, WinNonlin Professional Ver. 4.0.1 (manufactured by Pharsight Corporation, U.S.A.) was used as the analytical software. Method for the calculation of each parameter is mentioned as follows.
Concentration at time 0 (C0; extrapolated value, ng/mL), area under the curve for concentration in plasma vs. time (AUC; ng.min/mL) and quenching half-life (T½; minute(s)) were calculated as follows. C0 was calculated as a value at time by means of extrapolation from the changes in immunoreactivity concentration in plasma at each blood collection period. AUC was calculated by a trapezoidal method using the immunoreactivity concentrations in plasma at all measuring points (t) and an extrapolated value until the infinitive time was determined. T½ was calculated by means of a least-squares method from the inclination of a straight line connecting several points in a disappearing phase of the immunoreactivity concentration in plasma. In the case of a subcutaneous administration, C0 was not determined but the maximum concentration in plasma (Cmax; ng/mL) and the time reaching the maximum concentration in plasma (Tmax; min) were determined.
Changes in CNP immunoreactivity concentration in plasma of native CNP-22 and chimeric peptide (chimeric CNP) where a half-life-extension peptide was added to CNP were investigated.
The experiment was conducted in the same manner as in Example 1 that rats where polyethylene tube was previously inserted into thigh artery were used under an anesthetizing condition with Nembutal and male SD strain rats of 7 weeks age (purchased from Nippon Charles River) were used where one group comprised 3 rats. […] At that time, a rabbit polyclonal antibody (#2) recognizing a ring part of native CNP-22 was used as an antibody and ^125I-[Tyr^0] CNP was used as a labeling compound. Pharmacokinetic analysis was carried out by the same method as in Example 1.

[2] = target: T1, NEP (Rattus norvegicus, UniProt P07861); test: NEP resistance in vivo: influence of NEP inhibitor on pharmacokinetic parameters after intravenous administration; conditions: for AUC(0-inf) / C0 / half-life: male, SD, rat, in vivo, iv, 0.02 mg/kg, intravenous 0.02 mg/kg, male rats, N = 3; for AUC(0-inf): read-out: AUC0→∞ (converted); for C0: read-out: C0; for half-life: read-out: T½
T1 construct: male SD strain rats of 7 weeks age (Nippon Charles River; body weight: ca. 250 g) were used; from tissue; host or cells: whole animal: male SD rats (Nippon Charles River), in vivo
T1 sequence (P07861 1-750): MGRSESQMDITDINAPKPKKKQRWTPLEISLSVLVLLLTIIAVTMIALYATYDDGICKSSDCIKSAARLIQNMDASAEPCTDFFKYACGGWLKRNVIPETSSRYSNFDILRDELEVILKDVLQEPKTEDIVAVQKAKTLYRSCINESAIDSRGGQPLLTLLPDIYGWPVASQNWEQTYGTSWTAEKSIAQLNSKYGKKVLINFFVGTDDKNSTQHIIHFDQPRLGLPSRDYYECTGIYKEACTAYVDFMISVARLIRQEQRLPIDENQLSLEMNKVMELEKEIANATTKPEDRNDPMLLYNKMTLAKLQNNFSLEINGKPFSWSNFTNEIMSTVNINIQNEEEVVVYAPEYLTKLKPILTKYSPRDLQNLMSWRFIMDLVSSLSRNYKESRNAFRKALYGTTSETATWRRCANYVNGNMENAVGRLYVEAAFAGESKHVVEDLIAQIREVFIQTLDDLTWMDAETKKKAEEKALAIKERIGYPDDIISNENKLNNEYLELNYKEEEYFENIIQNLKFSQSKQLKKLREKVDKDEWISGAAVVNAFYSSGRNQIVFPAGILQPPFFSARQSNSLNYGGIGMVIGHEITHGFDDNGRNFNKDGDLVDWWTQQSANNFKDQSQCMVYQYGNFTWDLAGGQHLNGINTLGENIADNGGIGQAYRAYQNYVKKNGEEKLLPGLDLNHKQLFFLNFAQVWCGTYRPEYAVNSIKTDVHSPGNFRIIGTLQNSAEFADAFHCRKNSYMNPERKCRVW
Protocol: Further, NEP resistance in vivo of the native CNP-22 and chimeric CNP (B) was evaluated using the effect by the joint use with an NEP inhibitor affecting on changes in CNP immunoreactivity concentration in plasma after the intravenous administration as an index. This test was also carried out using rats into which a polyethylene tube (PE-50, manufactured by Clay […].) was inserted into thigh artery for collection of blood and rats into which a polyethylene tube (PE-10, manufactured by Clay […].) was inserted into thigh vein for administration of an NEP inhibitor under an anesthetizing condition using Nembutal. As a test system, male SD strain rats of 7 weeks age (Nippon Charles River; body weight: ca. 250 g) were used for the experiment where one group comprised 3 rats. […] Time for the administration was from 10 minutes before the administration of the native CNP-22 or the chimeric CNP (B) to completion of blood collection which was 60 minutes after the administration. The native CNP-22 and the chimeric CNP (B) each was administered into the tail vein in a dose of 20 μg/kg and the blood before starting the administration of NEP inhibitor (-10 minutes), before the administration of CNP (0 minute) and until after 60 minutes from the administration was collected by a thigh artery cannula. After a stabilizer and an anticoagulant were added to the collected blood, it was centrifuged to give plasma and the immunoreactivity concentration in the plasma was measured by the above-mentioned competitive RIA. The pharmacokinetic analysis was carried out by the same method as in Example 1.

[3] = rat, plasma, sc, subcutaneous, 0.1 mg/kg, male rats, N = 3, mean ± SD
[4] = rat, plasma, intravenous, 0.1 mg/kg, male rats, N = 3, mean ± SD

`CC[C@H](C)[C@@H]1NC(=O)[C@H](CCCNC(=N)N)NC(=O)[C@H](CC(=O)O)NC(=O)[C@H](CC(C)C)NC(=O)[C@H](CCCCN)NC(=O)[C@H](CC(C)C)NC(=O)CNC(=O)[C@H](Cc2ccccc2)NC(=O)[C@@H](NC(=O)CNC(=O)[C@H](CCCCN)NC(=O)[C@H](CO)NC(=O)[C@H](CC(C)C)NC(=O)CN)CSSC[C@@H](C(=O)O)NC(=O)CNC(=O)[C@H](CC(C)C)NC(=O)CNC(=O)[C@H](CO)NC(=O)[C@H](CCSC)NC(=O)[C@H](CO)NC(=O)CNC1=O` [Native CNP-22] gave an AUC(0-inf) [1, 3] of 17.7 ng·h/mL, a Cmax [1, 3] of 55.6 ± 4.5 ng/mL and a Tmax [1, 3] of 5 min. For the same molecule, the half-life [1, 3] was 7.8 ± 0.9 min, the AUC(0-inf) [1, 4] was 25.6 ng·h/mL and the C0 ([1]; rat, plasma, intravenous, 0.1 mg/kg, male rats, N = 3, mean ± SD, extrapolated value) was 1020 ± 273 ng/mL. For the same molecule, the half-life [1, 4] was 2.93 ± 0.23 min, the “CNP immunoreactivity concentration in plasma” value ([1]; subcutaneous, after 60 minutes from the administration) was “almost disappeared” and the “AUC with NEP inhibitor as compared with the case where the inhibitor was not used” value ([2]; intravenous, rats) was “about 3.7 fold”. For the same molecule, the “half-life with NEP inhibitor as compared with the case where the inhibitor was not used” value ([2]; intravenous, rats) was “about 5 fold”, the AUC(0-inf) ([2]; NEP Inhibitor (+)) was 12.6 ng·h/mL and the C0 ([2]; NEP Inhibitor (+)) was 131 ± 32 ng/mL. The half-life ([2]; NEP Inhibitor (+)) was 9.94 ± 1.4 min, the AUC(0-inf) ([2]; NEP Inhibitor (−)) was 3.37 ng·h/mL and the C0 ([2]; NEP Inhibitor (−)) was 145 ± 20 ng/mL. It also gave a half-life ([2]; NEP Inhibitor (−)) of 1.96 ± 0.05 min.
